The values that follow come from US20180284123A1, “BARCODED RAPID ASSAY PLATFORM USEFUL FOR EFFICIENT ANALYSIS OF CANDIDATE MOLECULES AND METHODS OF MAKING AND USING THE PLATFORM” (California Institute of Technology, priority 2017, published 2018).

Structures are written as SMILES. Numbered stars: 1 amine (or outer) side, 2 acyl side, 3 side chain; on linkers, the order of the positions; unused ones are H or OH. Bridge positions count the residues as written; N and C are the ends. Square brackets hold non-standard residues; d marks the D form. Triazole bridges read from a SMILES are 1,4-linked. Peptide text beside a SMILES is read from it. * marks the point of attachment. ξ: configuration not given here. Biotin = O=C1N[C@H]2[C@H](CS[C@H]2CCCCC(=O)*)N1; Lys(N3) = [N-]=[N+]=NCCCC[C@H](N)C(=O)O; ξLys(N3) = [N-]=[N+]=NCCCCC(N)C(=O)O; Ethylenediamine = C(CN[*:2])N[*:1]; PEG5 = NCCOCCOCCOCCOCCOCCC(=O)O; Pra = C#CC[C@H](N)C(=O)O

The target of assay [1] is T1, KRAS (Homo sapiens, UniProt P01116).
T1 construct: His6-tagged human KRas Isoform 4B (residues 1-169); His6; made in house; host or cells: E. coli BL21(DE3), PQE80 vector
T1 sequence (P01116 1-169 isoform P01116-2): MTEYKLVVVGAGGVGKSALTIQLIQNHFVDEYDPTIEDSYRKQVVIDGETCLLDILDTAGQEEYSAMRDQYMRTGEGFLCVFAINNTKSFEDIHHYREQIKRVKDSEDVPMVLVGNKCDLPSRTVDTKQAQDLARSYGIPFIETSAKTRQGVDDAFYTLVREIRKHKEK
Briefly: B-RAP surface immunofluorescent assay, PCC ligand KRas EC50. The format is binding. Conditions: 10 μM KRas well of plate #1, pixel by pixel. How it is done: The barcode patterned microchip surface was partitioned into 16 individual microwells using a pre-fabricated PDMS slab. Individual biotinylated PCC candidates were complexed to specific SAC-DNA conjugates, combined into a cocktail, and then self-assembled, via DNA hybridization, onto designated barcode stripes (FIGS. 2-4). Incubation with a specific concentration of the target protein preceded incubation with a primary capture antibody and then a fluorophore-conjugated secondary detection antibody. During assay execution, each well represents a different target concentration or assay condition. Once developed, the fluorescence of the barcodes is digitized using a GenePix 4400A array scanner, with an excitation laser power optimized to a power level of 40% (60 W), which maximizes detection sensitivity while also minimizing signal saturation. Data extraction occurs using 10 μm radius circles, taken along the length of a barcode stripe. A fluorescence signal representing the average of all the pixels within a given circle is collected. A total of ten circles (data-blocks) are measured along a 180 μm span of the middle portion for each individual barcode lane in a given well. 10 μM KRas protein gave an average F635 of 47,868.7, with a standard deviation of 4154.53. 1 μM KRas protein gave an average F635 of 11437.6, with a standard deviation of 1602.202. 100 nM KRas protein gave an average F635 of 1780.6, with a standard deviation of 236.38. This illustrates the intensity across a stripe compared to the intensity from the data-block extraction. After extraction the data is background corrected. The background signal arises from (a) non-specific binding of the primary and secondary antibodies (independent of [KRas]), but can vary across different barcode stripes), and (b) non-specific binding of KRas protein ([KRas] dependent). Background (a) was assessed by measuring the average signal in the null protein well for each stripe. Background (b) was assessed by measuring the average fluorescence for the dummy ligand (Biotin* probe) that was in each well. The background subtracted data was then graphed in Graphpad Prism 7 and fitted to a sigmoidal curve (Hill coefficient=1).
Measurement of PCC Ligand KRas EC50 with the Barcode Rapid Assay Platform
Protein Incubation Buffer: Tris-buffered saline (TBS)+0.05% Tween20 (TBST)
A pre-fabricated PDMS template was aligned onto the DNA barcode microchip, and the microchip was taped into a 10 cm petri dish. The wells on the platform were wet with 50 μL PBST before filling with blocking buffer and placing into a 37° C. incubator for 1 hr. Concurrently, 40 μL 1% BSA in PBS solutions containing 750 nM of a SAC-DNA conjugate and 3.75 μM of one biotinylated PCC ligand or biotin-A20-Cy3 blank were prepared for each SAC-DNA conjugate. The biotinylated ligands were allowed to complex with the SAC protein for one hour before pooling the SAC-DNA-ligand solutions (final [SAC-DNA-ligand conjugates]=50 nM). The blocking buffer was aspirated and each well was loaded with the SAC-DNA-ligand conjugates cocktail for hybridization with the DNA barcode at 37° C. for one hour. The wells were washed with PBST (3×) before loading serially diluted solutions of KRas protein in protein buffer (0 to 400 μM). After shaking at RT for one hour, the wells were rinsed with PBST (5×), making sure to pipet up/down with the first addition of PB ST. A (100:1) dilution of CST rabbit anti-Ras Ab (#39655) in 1° ab buffer was added to each well before shaking at RT for one hour. After rinsing the wells with PBST (3×), the wells were loaded with a (200:1) dilution of Abcam goat anti-rabbit-Alexafluor 647 linked ab (ab150079) in 2° ab buffer before shaking at RT for one hour. A final rinse of the wells with PBST (3×) proceeded peeling off the PDMS slab from the barcode microchip and dipping the barcode into the following solutions: PBS, (1:1) PBS: MQ H2O, MQ H2O (2×). […]

Assay [2] has as its target T1, KRAS. Put plainly: GTPase Glo assay of intrinsic KRas GTPase activity. The format is biochemical. On the procedure: The intrinsic GTPase activity of WT KRas protein was measured using the GTPase-Glo Assay Kit (#V7681) from Promega Corporation (Madison, Wis.) on opaque white 96-well plates (#6005290) from Perkin Elmer Life Sciences (Waltham, Mass.). Luminescence was recorded on the Flexstation 3 plate reader used for multi-well ELISAs.
KRas inhibition assays were carried out using a GTPase Glo Assay kit from Promega. Each candidate inhibitor PCC was initially tested by combining a concentration series of the ligand with 10 μM KRas protein in an opaque white 96-well plate and incubated with 5 μM 5′-guanosine triphosphate (GTP) for two hours. The remaining GTP was […]. Chemiluminescence was measured using a Flexstation 3 plate reader (All wavelengths mode, 500 ms integration), and plotted using Graphpad Prism 7. […] All measurements were done in triplicate.
The GTPase assays were run in triplicate on a multi-well plate using the GTPase Glo Assay kit from Promega with 10 μM KRas protein and varying concentrations of ligand (1 μM to 100 μM L1a, L8 and 2.5 μM to 250 μM L2). All reagents were warmed to RT before use. A single opaque white 96-well plate was charged with 12.5 μL GTPase/GAP buffer (GTPase buffer w/ 1 mM DTT), 10 μM KRas in GTPase/GAP buffer, or 10 μM KRas protein with either L1a, L2, or L8. Running the survey assays on the same plate allowed for direct comparison of the curves, but it necessitated the use of the first row/column on the multi-well plate which introduced some noise to the low ligand concentration points. A 12.5 μL aliquot of a 2×GTP solution (10 μM rGTP in GTPase Buffer) was then added to each well before allowing the plate to shake at RT for two hours (initial GTPase inhibition assay). The GTPase Glo reagent was reconstituted in the GTPase Glo Buffer (4 μL GTPase Glo (500×) reagent, 1996 μL GTPase Glo Buffer, 1 μL 10 mM ADP) immediately before adding 25 μL to each well. Shaking at RT for thirty minutes preceded the addition of 50 μL of the Detection reagent to each well. The plate was covered and incubated for a total of ten minutes before reading the luminescence with a Flexstation 3 plate reader (All wavelengths mode, 500 ms integration time), graphed using Graphpad Prism 7 (Sigmoidal 4PL mode), and an IC50 value was calculated.
For the full GTPase inhibition curve for L2, the above procedure was followed with the change that the incubation with KRas occurred over or four hours rather than two.
Consequently, the best three ligand fractions L1a, L2, and L8 were probed in a functional, solution phase assay for their ability to disrupt the intrinsic GTPase enzymatic activity of KRas protein. This assay measures the enzymatic conversion of GTP to GDP by KRas—a process that can potentially be inhibited. After incubation, an added GTPase Glo™ reagent converts the remaining GTP to ATP, and the ATP is converted into a chemiluminescent signal. Thus, higher chemiluminescence translates to lower KRas enzymatic activity. For the measurements, a fixed [KRas protein] is incubated with varying ligand concentrations. A concentration of 10 μM KRas protein was selected after generating a standard curve for the intrinsic KRas GTPase activity. KRas is a slow acting enzyme, so a KRas/PCC incubation time of two hours was used for the initial survey scans, while four hour incubation times were used for the higher resolution data. […] Thus, the modulation of KRas activity by L2 was recorded with an expanded concentration range.

The mark [3] stands for this setting: survey assays, 10 μM KRas, two hour incubation.

Take `CCC(C)[C@@H]1NC(=O)CNC(=O)[C@H](Cc2cnc[nH]2)NC(=O)[C@@H](N)Cc2cn(nn2)CCCC[C@@H](C(=O)NCCOCCOCCOCCOCCOCCC(=O)NCCNC(=O)CCCC[C@@H]2SC[C@@H]3NC(=O)N[C@@H]32)NC(=O)CNC(=O)[C@H](C(C)C)NC1=O` (single isomer, unassigned) [Ligand L1a, HGIVG]: the “Avg F635, Full Centroid” value on KRAS [1] (full centroid) was 20134. Besides, the “Avg F635, Full Lane” value on KRAS [1] (full lane) amounted to 18768. Moreover, at KRAS [1] (left part of centroid), the “avg F635, Left Part Centroid” value stood at 17838. For the same molecule, the “avg F635, Middle Part Centroid” value at KRAS [1] (middle part of centroid) worked out at 20725. On KRAS [1] (right part of centroid), the “avg F635, Right Part Centroid” value came out at 21906. Besides, the “effect on the KRas protein's GTPase activity” value (“effect” for short) on KRAS [2] (setting [3]) is “inhibitory effect”.
For `CC(C)[C@@H]1NC(=O)[C@@H]2CCCN2C(=O)[C@H](C(C)C)NC(=O)CNC(=O)[C@H](CCC(=O)O)NC(=O)[C@@H](N)Cc2cn(nn2)CCCCC(C(=O)NCCOCCOCCOCCOCCOCCC(=O)NCCNC(=O)CCCC[C@@H]2SC[C@@H]3NC(=O)N[C@@H]32)NC1=O` (stereo partly drawn) [Ligand L2, EGVPV] (H-[Pra]EGVPV[ξLys(N3)][PEG5]-{Ethylenediamine-Biotin}; triazole 1-7), the “concentration above which ligand switches from weakly activating to strongly inhibiting” value on KRAS [2] (expanded concentration range, 10 μM KRas) is recorded as “above 20 μM”. Besides, the “Hill coefficient of the titration curve” value at KRAS [2] (full inhibition curve, four-hour incubation) is on record as about 10. In addition, the rGTP hydrolyzed result at KRAS [2] (ligand-only (no KRas) wells) is listed as “Less than 5%”. Also, at KRAS [2] (setting [3]), the “effect” value is recorded as “inhibitory effect” and the “relative potency as inhibitor of KRas GTPase activity” value was “most potent”.
Turning to `C[C@@H](O)[C@@H]1NC(=O)[C@@H](N)Cc2cn(nn2)CCCC[C@@H](C(=O)NCCOCCOCCOCCOCCOCCC(=O)NCCNC(=O)CCCC[C@@H]2SC[C@@H]3NC(=O)N[C@@H]32)NC(=O)[C@H](Cc2ccc(O)cc2)NC(=O)[C@H](Cc2ccccc2)NC(=O)[C@H](CC(N)=O)NC(=O)[C@H](CC(=O)O)NC1=O` [Ligand L8, TDNFY] (H-[Pra]TDNFY[Lys(N3)][PEG5]-{Ethylenediamine-Biotin}; triazole 1-7), the “effect” value at KRAS [2] (setting [3]) was “inhibitory effect”.
